Source: patent publication US20070173539A1, “Use of malonomicin and analogs in fungicidal applications” (priority 2006, published 2007)

Assays:
Assay type in all cases: in vivo
[1] = tested on: Phytophthora infestans (PHYTIN); conditions: 1DP, tomato (rutgers), sprayed to runoff, rate 200 ppm
[2] = tested on: Puccinia recondita f. sp. tritici (PUCCRT); experiment: Brown Rust of Wheat one day protectant (1DP); conditions: wheat (Monon), sprayed to runoff, rate 200 ppm
Protocol: (§1) Final treatment volumes were obtained by adding 0.1 percent aqueous Ethomeen T25 or 0.1 percent aqueous Spraymate X77+0.1 percent wt./vol. ammonium sulfate^+. Brown Rust of Wheat (Puccinia recondita f. sp. tritici-PUCCRT) (1 DP) Wheat (cultivar Monon) was grown in plastic pots (6.2 cm×8.75 cm) containing 50 percent mineral soil, 50 percent Metro-Mix 360 (W.R Grace and Co.) until the seedlings were 10-20 cm tall. These plants were then sprayed to runoff with the test compound at a rate of 200 ppm. After 24 hours the test plants were inoculated by spraying with an aqueous spore suspension of Puccinia recondita f. sp. tritici (PUCCRT). The plants were then transferred to a dew chamber for 24 hours, then to the greenhouse until disease developed on the untreated control plants.

[3] = tested on: Septoria tritici (SEPTTR); experiment: Speckled Leaf Blotch of Wheat one day protectant (1DP); conditions: wheat (Monon), sprayed to runoff, rate 200 ppm
Protocol: as §1, with “Speckled Leaf Blotch” for “Brown Rust”, “(Septoria tritici-[…])” for “(Puccinia recondita f. sp. tritici-PUCCRT) (1 DP)”, “Septoria” for “Puccinia recondita f. sp.”, “([…]).” for “(PUCCRT).”

[4] = tested on: Leptosphaeria nodorum (LEPTNO); experiment: Glume Blotch of Wheat one day protectant (1DP); conditions: wheat (Yuma), sprayed to runoff, rate 200 ppm
Protocol: as §1, with “Glume Blotch” for “Brown Rust”, “(Leptosphaeria nodorum-[…])” for “(Puccinia recondita f. sp. tritici-PUCCRT) (1 DP)”, “Yuma)” for “Monon)”, “Co.).” for “Co.)”, “Leptosphaeria nodorum ([…]).” for “Puccinia recondita f. sp. tritici (PUCCRT).”

[5] = tested on: Erysiphe graminis f. sp. tritici (ERYSGT); experiment: Powdery Mildew of Wheat one day protectant (1DP); conditions: wheat (Monon), sprayed to runoff, rate 200 ppm
Protocol: Final treatment volumes were obtained by adding 0.1 percent aqueous Ethomeen T25 or 0.1 percent aqueous Spraymate X77+0.1 percent wt./vol. ammonium sulfate^+. Powdery Mildew of Wheat (Erysiphe graminis f. sp. tritici-[…]) Wheat (cultivar Monon) was grown in plastic pots (6.2 cm×8.75 cm) containing 50 percent mineral soil, 50 percent Metro-Mix 360 (W.R Grace and Co.) until the seedlings were 10-20 cm tall. These plants were then sprayed to runoff with the test compound at a rate of 200 ppm. After 24 hours the test plants were inoculated with Erysiphe graminis f. sp. tritici ([…]) by dusting spores from stock plants onto the test plants. The plants were then transferred to the greenhouse until disease developed on the untreated control plants.

[6] = tested on: Plasmopara viticola (PLASVI); experiment: Downy Mildew of Grape one day protectant (1DP); conditions: grape (Carignane), sprayed to runoff, rate 200 ppm
Protocol: Final treatment volumes were obtained by adding 0.1 percent aqueous Ethomeen T25 or 0.1 percent aqueous Spraymate X77+0.1 percent wt./vol. ammonium sulfate^+. Downy Mildew of Grape (Plasmopara viticola-[…]) Vines (cultivar Carignane) were grown from seed in a soilless peat-based potting mixture “Metro-Mix 360” (W.R Grace and Co.) until the seedlings were 10-20 cm tall. These plants were then sprayed to runoff with the test compound at a rate of 200 ppm. After 24 hours the test plants were inoculated by spraying with an aqueous sporangia suspension of Plasmopara viticola ([…]). The plants were then transferred to a dew chamber for 24 hours, then to the greenhouse until disease developed on the untreated control plants.

[7] = tested on: Puccinia recondita f. sp. tritici (PUCCRT); experiment: Brown Rust of Wheat Drop Line Test; conditions: Drop Line Test 0.5 μg/leaf, 2 microliter drop on wheat leaf
Protocol: as §1, with “Brown” for “Final treatment volumes were obtained by adding 0.1 percent aqueous Ethomeen T25 or 0.1 percent aqueous Spraymate X77+0.1 percent wt./vol. ammonium sulfate^+. Brown”, “plants. In Example 3, a Drop Line Test was used, wherein instead of spraying the plant to runoff, a 2 microliter drop was placed on the wheat leaf and observed for disease control.” for “plants.”

Compound | PHYTIN percent control of plant disease [1] | PUCCRT percent control of plant disease [2] | SEPTTR percent control of plant disease [3] | LEPTNO percent control of plant disease [4] | ERYSGT percent control of plant disease [5] | PLASVI percent control of plant disease [6] | PUCCRT percent control of plant disease [7]
C[C@H](N)C(=O)NC(CC(=O)C1=C(O)[C@H](CN)NC1=O)(C(=O)O)C(=O)O [Compound II] | + (+ = 30-74 percent control of plant disease) | ++ (++ = 75-100 percent control of plant disease) | + (+ = 30-74 percent control of plant disease) | − (− = 0-29 percent control of plant disease) | − (− = 0-29 percent control of plant disease) | − (− = 0-29 percent control of plant disease) | 
NC[C@@H]1NC(=O)C(C(=O)CC(CC(=O)O)(NC(=O)[C@@H](N)CO)C(=O)O)=C1O (some centres unmarked) [Compound V] | + (+ = 30-74 percent control of plant disease) | ++ (++ = 75-100 percent control of plant disease) | − (− = 0-29 percent control of plant disease) | − (− = 0-29 percent control of plant disease) | − (− = 0-29 percent control of plant disease) |  | 
NC[C@@H]1NC(=O)C(C(=O)CC(CC(=O)O)(NC(=O)[C@@H](N)CO)C(=O)O)=C1O (some centres unmarked) [Compound VI] | − (− = 0-29 percent control of plant disease) | ++ (++ = 75-100 percent control of plant disease) | + (+ = 30-74 percent control of plant disease) | − (− = 0-29 percent control of plant disease) | − (− = 0-29 percent control of plant disease) |  | 
C[C@H](N)C(=O)NC(CC(=O)O)(CC(=O)C1C(=O)N[C@@H](CN)C1=O)C(=O)O (some centres unmarked) [Compound III] |  |  |  |  |  |  | + (+ = 30-74 percent control of plant disease)
